Results: patent US12187756B2 (priority 2018, dated 2025)

Details: buffer

Question: With CC(=O)NC1[C@H](O[C@@H]2C(CO)O[C@H](O[C@H]3C(CO)O[C@@H](O[C@@H]4C(O)[C@@H](COP(=O)(O)OCCCCCN)OC(CO)[C@H]4O)C(NC(C)=O)[C@H]3O[C@@H]3OC(CO)[C@@H](O)[C@H](O)C3O)[C@@H](O)C2O)OC(CO)[C@H](O)[C@@H]1O[C@@H]1OC(CO)[C@@H](O)[C@H](O)C1O (stereo partly shown) [compound 33] as the compound, how does the “compound remaining intact (HPLC)” value read?
Answer: 50%
